Results published in US8338441B2, “Inhibitors of human immunodeficiency virus replication” (priority 2009, dated 2012).

system: HIV-1 NL4.3 strain; experiment: C8166 HIV-1 Luciferase Assay (EC50); type: cell-based; conditions: Human immunodeficiency virus 1, C8166, 72 h, read-out: Antiviral potency EC50
Excerpt: C8166 HIV-1 Luciferase Assay (EC50)
C8166 cells are derived from a human T-lymphotrophic virus type 1 immortalized but nonexpressing line of cord blood lymphocytes (obtained from J. Sullivan and originally produced in the laboratory of R. Gallo, Virology 1983; 129: 51-64) and are highly permissive to HIV-1 infection. The pGL3 Basic LTR/TAR plasmid is made by introducing the HIV-1 HxB2 LTR sequence from nucleotide −138 to +80 (Sca1-HindIII) upstream of the luciferase gene in the pGL3 Basic Vector (a promoterless luciferase expression vector from Promega catalogue # E1751) with the gene for blasticidine resistance cloned in. The reporter cells are made by electroporating C8166 cells with pGL3 Basic LTR/TAR and selecting positive clones with blasticidine. Clone C8166-LTRIuc #A8-F5-G7 is selected by 3 consecutive rounds of limiting dilution under blasticidine selection. Cultures are maintained in complete media (consisting of: Roswell Park Memorial Institute medium (RPMI) 1640+10% FBS+10^−5 M β-mercaptoethanol+10 μg/ml gentamycin) with 5 μg/ml blasticidine, however, blasticidine selection is removed from the cells before performing the viral replication assay.
Luciferase Assay Protocol
Serial dilutions of HIV-1 inhibitor compounds are prepared in complete media from 10 mM DMSO stock solutions. Eleven serial dilutions of 2.5× are made at 8× desired final concentration in a 1 mL deep well titer plate (96 wells). The 12th well contains complete media with no inhibitor and serves as the positive control. All samples contain the same concentration of DMSO (≦0.1% DMSO). A 25 μL aliquot of inhibitor is added, to triplicate wells, of a 96 well tissue culture treated clear view black microtiter plate (Corning Costar catalogue # 3904). The total volume per well is 200 μL of media containing cells and inhibitor. The last row is reserved for uninfected C8166 LTRluc cells to serve as the background blank control and the first row is media alone.
C8166 LTRluc cells are counted and placed in a minimal volume of complete RPMI 1640 in a tissue culture flask (ex. 30×10^6 cells in 10 mL media/25 cm^2 flask). Cells are infected with HIV-1 or virus with variant integrase generated as described below at a […] (moi) of 0.005. Cells are incubated for 1.5 hours at 37° C. on a rotating rack in a 5% CO2 incubator and re-suspended in complete RPMI to give a final concentration of 25,000-cells/175 μL. 175 μL of cell mix is added to wells of a 96 well microtiter plate containing 25 μL 8× inhibitors. 25,000 uninfected C8166-LTRluc cells/well in 200 μL complete RPMI are added to the last row for background control. Cells are incubated at 37° C. in 5% CO2 incubator for 3 days.
50 μL Steady Glo (luciferase substrate T1/2=5 hours Promega catalogue # E2520) is added to each well of the 96 well plate. The relative light units (RLU) of luciferase is determined using the LUMIstar Galaxy luminometer (BMG LabTechnologies). Plates are read from the bottom for 2 seconds per well with a gain of 240.
The level of inhibition (% inhibition) of each well containing inhibitor is calculated as follows: […]
The calculated % inhibition values are used to determine EC50, slope factor (n) and maximum inhibition (Imax) by the non-linear regression routine NLIN procedure of SAS using the following equation: […]

Structure (SMILES) | EC50
Cc1nc(-c2cccc(Br)c2)c(C)c(-c2ccc3c(c2)CCCO3)c1[C@H](OC(C)(C)C)C(=O)O [compound 1005] | 19 nM
Cc1nc(-c2cccc(-c3cccnc3)c2)c(C)c(-c2ccc3c(c2)CCCO3)c1[C@H](OC(C)(C)C)C(=O)O [compound 1009] | 20 nM
CCCn1cc(-c2cccc(-c3nc(C)c([C@H](OC(C)(C)C)C(=O)O)c(-c4ccc5c(c4)CCCO5)c3C)c2)cn1 [compound 1011] | 59 nM
Cc1nc(-c2cccc(-c3cncnc3)c2)c(C)c(-c2ccc3c(c2)CCCO3)c1[C@H](OC(C)(C)C)C(=O)O [compound 1017] | 21 nM
Cc1n[nH]c(C)c1-c1cccc(-c2nc(C)c([C@H](OC(C)(C)C)C(=O)O)c(-c3ccc4c(c3)CCCO4)c2C)c1 [compound 1018] | 180 nM
Cc1nc(-c2cccc(-c3ccnnc3)c2)c(C)c(-c2ccc3c(c2)CCCO3)c1[C@H](OC(C)(C)C)C(=O)O [compound 1020] | 49 nM
Cc1nc(-c2ccc(-c3cncnc3)cc2)c(C)c(-c2ccc3c(c2C)CCCO3)c1[C@H](OC(C)(C)C)C(=O)O [compound 1102] | 17 nM
Cc1ccc(-c2nc(C)c([C@H](OC(C)(C)C)C(=O)O)c(-c3ccc(Cl)cc3)c2C)cc1C [compound 1111] | 15 nM
Cc1ccc(-c2nc(C)c([C@H](OC(C)(C)C)C(=O)O)c(-c3ccc4c(c3C)NCCO4)c2C)cc1C [compound 1113] | 7.7 nM
Cc1ccc(-c2nc(C)c([C@H](OC(C)(C)C)C(=O)O)c(-c3ccc4c5c(ccnc35)CCO4)c2C)cc1C [compound 1116] | 13 nM
Cc1nc(-c2cccc(-c3ccnn3C)c2)c(C)c(-c2ccc(Cl)cc2)c1[C@H](OC(C)(C)C)C(=O)O [compound 1124] | 81 nM
Cc1nc(C(=O)N[C@H]2CC[C@H](C)CC2)c(C)c(-c2ccc3c(c2)CCCO3)c1[C@H](OC(C)(C)C)C(=O)O [compound 1127] | 4.5 nM
Cc1nc(-c2ccc(OC(F)(F)F)cc2)c(C)c(-c2ccc(Cl)cc2)c1[C@H](OC(C)(C)C)C(=O)O [compound 1132] | 9.4 nM
Cc1nc(-c2ccc3scnc3c2)c(C)c(-c2ccc(Cl)cc2)c1[C@H](OC(C)(C)C)C(=O)O [compound 1141] | 26 nM
Cc1nc(C(=O)N[C@H]2CC[C@H](C)CC2)c(C)c(-c2ccc(Cl)cc2)c1[C@H](OC(C)(C)C)C(=O)O [compound 1142] | 7.9 nM
Cc1nc(C(=O)NC(C)(C)C)c(C)c(-c2ccc(Cl)cc2)c1[C@H](OC(C)(C)C)C(=O)O [compound 1143] | 21 nM
Cc1nc(C(=O)NC2Cc3ccccc3C2)c(C)c(-c2ccc(Cl)cc2)c1[C@H](OC(C)(C)C)C(=O)O [compound 1145] | 35 nM
Cc1nc(C(=O)NCCc2ccccc2)c(C)c(-c2ccc(Cl)cc2)c1[C@H](OC(C)(C)C)C(=O)O [compound 1146] | 17 nM
Cc1nc(C(=O)NC2CCCCCC2)c(C)c(-c2ccc(Cl)cc2)c1[C@H](OC(C)(C)C)C(=O)O [compound 1147] | 6.9 nM
Cc1nc(C(=O)N[C@@H](C)C2CCCCC2)c(C)c(-c2ccc(Cl)cc2)c1[C@H](OC(C)(C)C)C(=O)O [compound 1152] | 15 nM
Cc1nc(C(=O)NC(C)(C)c2ccccc2)c(C)c(-c2ccc(Cl)cc2)c1[C@H](OC(C)(C)C)C(=O)O [compound 1154] | 27 nM
CC[C@@H](C)NC(=O)c1nc(C)c([C@H](OC(C)(C)C)C(=O)O)c(-c2ccc(Cl)cc2)c1C [compound 1160] | 16 nM
Cc1nc(C(=O)NC2CCC(C(C)(C)C)CC2)c(C)c(-c2ccc(Cl)cc2)c1[C@H](OC(C)(C)C)C(=O)O (stereo partly drawn) [compound 1161] | 27 nM
Cc1ccc(NC(=O)c2nc(C)c([C@H](OC(C)(C)C)C(=O)O)c(-c3ccc(Cl)cc3)c2C)cc1 [compound 1167] | 9.3 nM
Cc1nc(C(=O)NC2CCCCCC2)c(C)c(-c2ccc3c(c2C)NCCO3)c1[C@H](OC(C)(C)C)C(=O)O [compound 1192] | 8.3 nM
Cc1nc(NC(=O)C(C)(C)C)c(C)c(-c2ccc(Cl)cc2)c1[C@H](OC(C)(C)C)C(=O)O [compound 1202] | 31 nM

Structure (SMILES) | EC50
Cc1nc(C(=O)NCC2CCCC2)c(C)c(-c2ccc(Cl)cc2)c1[C@H](OC(C)(C)C)C(=O)O [compound 1208] | 8.9 nM
Cc1nc(NC(=O)C(C)(C)C)c(C)c(-c2ccc3c(c2Cl)NCCO3)c1[C@H](OC(C)(C)C)C(=O)O [compound 1242] | 220 nM
Cc1nc(C(=O)NCC2CCCC2)c(C)c(-c2ccc3c(c2Cl)NCCO3)c1[C@H](OC(C)(C)C)C(=O)O [compound 1256] | 8.1 nM
Cc1nc(C(=O)Nc2ccc3ncccc3c2)c(C)c(-c2ccc(Cl)cc2)c1[C@H](OC(C)(C)C)C(=O)O [compound 1275] | 4.5 nM
Cc1nc(C(=O)Nc2nc3c(s2)CCC3)c(C)c(-c2ccc(Cl)cc2)c1[C@H](OC(C)(C)C)C(=O)O [compound 1276] | 68 nM
Cc1nc(C(=O)Nc2ccc(C(F)(F)F)nc2)c(C)c(-c2ccc(Cl)cc2)c1[C@H](OC(C)(C)C)C(=O)O [compound 1280] | 22 nM
Cc1nc(C(=O)Nc2ccc(C(N)=O)nc2)c(C)c(-c2ccc(Cl)cc2)c1[C@H](OC(C)(C)C)C(=O)O [compound 1283] | 140 nM
Cc1nc(C(=O)Nc2ccc(F)cn2)c(C)c(-c2ccc3c(c2)NCCO3)c1[C@H](OC(C)(C)C)C(=O)O [compound 1290] | 11 nM
Cc1nc(C(=O)NCC2CCCC2)c(C)c(-c2ccc3c(c2)NCCO3)c1[C@H](OC(C)(C)C)C(=O)O [compound 1293] | 24 nM
Cc1nc(C(=O)NCC2CCC2)c(C)c(-c2ccc(Cl)cc2)c1[C@H](OC(C)(C)C)C(=O)O [compound 1307] | 17 nM
Cc1nc2ccc(NC(=O)c3nc(C)c([C@H](OC(C)(C)C)C(=O)O)c(-c4ccc(Cl)cc4)c3C)cc2s1 [compound 1311] | 26 nM
Cc1nc(C(=O)Nc2nnc(C3CC3)s2)c(C)c(-c2ccc(Cl)cc2)c1[C@H](OC(C)(C)C)C(=O)O [compound 1316] | 47 nM
Cc1nc(-c2nc3ccc(Cl)cc3n2C)c(C)c(-c2ccc(Cl)cc2)c1[C@H](OC(C)(C)C)C(=O)O [compound 1437] | 0.75 nM
Cc1nc(-c2cn3cc(Cl)ccc3n2)c(C)c(-c2ccc(Cl)cc2)c1[C@H](OC(C)(C)C)C(=O)O [compound 1438] | 0.94 nM
COc1ccc2nc(-c3nc(C)c([C@H](OC(C)(C)C)C(=O)O)c(-c4ccc(Cl)cc4)c3C)n(C)c2c1 [compound 1439] | 4 nM
CCn1c(-c2nc(C)c([C@H](OC(C)(C)C)C(=O)O)c(-c3ccc(Cl)cc3)c2C)nc2ccccc21 [compound 1440] | 2.4 nM
COc1cc2nc(-c3nc(C)c([C@H](OC(C)(C)C)C(=O)O)c(-c4ccc(Cl)cc4)c3C)n(C)c2cc1Cl [compound 1441] | 4.9 nM
Cc1nc(C(=O)NCc2ccnc3ccccc23)c(C)c(-c2ccc(Cl)cc2)c1[C@H](OC(C)(C)C)C(=O)O [compound 1442] | 16 nM
[2H]C1([2H])C([2H])([2H])C([2H])([2H])C([2H])(NC(=O)c2nc(C)c([C@H](OC(C)(C)C)C(=O)O)c(-c3ccc(Cl)cc3)c2C)C([2H])([2H])C1([2H])[2H] [compound 1443] | 7.1 nM
Cc1nc(C(=O)NC2CCC3(CC2)CC3)c(C)c(-c2ccc(Cl)cc2)c1[C@H](OC(C)(C)C)C(=O)O [compound 1444] | 9.2 nM
Cc1nc(-c2nc3cc(Cl)ccc3[nH]2)c(C)c(-c2ccc(Cl)cc2F)c1[C@H](OC(C)(C)C)C(=O)O [compound 1445] | 1.9 nM
Cc1nc(-c2nc3cc(Cl)ccc3[nH]2)c(C)c(-c2ccccc2Cl)c1[C@H](OC(C)(C)C)C(=O)O [compound 1446] | 1.9 nM
Cc1nc(-c2nc3ccc(Cl)cc3[nH]2)c(C)c(-c2ccc(Br)cc2)c1[C@H](OC(C)(C)C)C(=O)O [compound 1447] | 0.38 nM
Cc1nc(-c2nc3ccccc3n2C)c(C)c(-c2ccc(Br)cc2)c1[C@H](OC(C)(C)C)C(=O)O [compound 1448] | 1.4 nM
Cc1nc(-c2nc3ccccc3n2CC2CC2)c(C)c(-c2ccc(Cl)cc2)c1[C@H](OC(C)(C)C)C(=O)O [compound 1449] | 1.8 nM
